# According to paper PMC8654833 (Scientific Reports, 2021):
# Values joined by “and” are separate entries in the source; they are usually repeats but may differ in a detail not shown here. Equal values may be shown once.
# Columns and labels:
# [1] = Plasma and brain distribution after single IP injection; conditions: CD-1, mouse, 10 mg/kg
# [2] = Stability in vehicle at 37 °C by LC-MS; assay type: physicochemical; conditions: vehicle (20% DMSO in distilled water), data not shown
# 5-HT7 = molecular target: T1, 5-HT7 (Homo sapiens, UniProt P34969); assay: Radioligand binding competition dose-response (Euroscreen), 5-HT7
# T1 construct: Euroscreen FAST (contract assay)
# T1 sequence (P34969 whole entry, species assumed): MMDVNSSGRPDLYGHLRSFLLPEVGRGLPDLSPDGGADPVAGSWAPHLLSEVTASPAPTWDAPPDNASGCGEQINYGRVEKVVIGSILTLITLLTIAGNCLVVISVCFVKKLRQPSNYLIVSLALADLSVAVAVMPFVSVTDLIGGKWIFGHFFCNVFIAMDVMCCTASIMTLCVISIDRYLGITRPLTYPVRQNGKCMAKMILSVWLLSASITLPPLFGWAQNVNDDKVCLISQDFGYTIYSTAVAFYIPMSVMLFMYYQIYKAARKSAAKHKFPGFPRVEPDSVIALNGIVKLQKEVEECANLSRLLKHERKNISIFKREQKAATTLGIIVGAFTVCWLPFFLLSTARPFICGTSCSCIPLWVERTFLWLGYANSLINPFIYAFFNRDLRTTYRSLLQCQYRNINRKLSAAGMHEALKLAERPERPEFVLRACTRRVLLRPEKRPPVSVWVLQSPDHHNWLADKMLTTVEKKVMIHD
# Experimental: (§1) This study included binding assays (87 GPCR targets), measured as % of binding inhibition of a reference radioligand, as well as uptake and enzyme assays (19 targets), the latter measured as % inhibition of control enzyme activity. […] It was performed by radioligand binding competition by Euroscreen (Euroscreen FAST, Belgium). The following nanomolar concentrations were tested in duplicate: 0.001, 0.01, 0.1, 1, 10, 100, 1000, 10,000. Dose–response curves were fitted with the least squares method. IC50 results are shown as pIC50, corresponding to the negative log10 of IC50 in molar.
# DAT = molecular target: T2, DAT (Homo sapiens, UniProt Q01959); assay: Radioligand binding competition dose-response (Euroscreen), dopamine transporter
# T2 construct: Euroscreen FAST (contract assay)
# T2 sequence (Q01959 whole entry, species assumed): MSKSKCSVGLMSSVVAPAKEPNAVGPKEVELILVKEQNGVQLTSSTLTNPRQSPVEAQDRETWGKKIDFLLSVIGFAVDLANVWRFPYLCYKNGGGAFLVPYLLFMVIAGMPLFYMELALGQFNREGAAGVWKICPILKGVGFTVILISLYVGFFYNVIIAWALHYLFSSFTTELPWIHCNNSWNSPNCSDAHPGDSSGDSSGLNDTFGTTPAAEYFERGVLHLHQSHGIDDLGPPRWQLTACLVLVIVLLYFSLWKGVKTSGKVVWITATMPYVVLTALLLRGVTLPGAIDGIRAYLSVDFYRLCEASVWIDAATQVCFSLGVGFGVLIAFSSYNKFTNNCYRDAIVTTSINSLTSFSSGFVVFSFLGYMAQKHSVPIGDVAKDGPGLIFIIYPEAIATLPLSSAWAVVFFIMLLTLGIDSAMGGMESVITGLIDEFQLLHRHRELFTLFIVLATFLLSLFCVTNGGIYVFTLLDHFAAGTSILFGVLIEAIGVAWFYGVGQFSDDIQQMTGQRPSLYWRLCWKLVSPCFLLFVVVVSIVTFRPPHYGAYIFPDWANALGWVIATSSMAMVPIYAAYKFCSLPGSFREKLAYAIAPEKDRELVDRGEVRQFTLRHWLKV
# Experimental: as §1
# 5-HT1A = molecular target: T3, 5-HT1A (Homo sapiens, UniProt P08908); assay: Single-concentration radioligand binding screen (Eurofins Cerep), 5-HT1A; conditions: single concentration 10 µM screen, [3H]8-OH-DPAT
# T3 construct: Euroscreen FAST (contract assay)
# T3 sequence (P08908 1-422): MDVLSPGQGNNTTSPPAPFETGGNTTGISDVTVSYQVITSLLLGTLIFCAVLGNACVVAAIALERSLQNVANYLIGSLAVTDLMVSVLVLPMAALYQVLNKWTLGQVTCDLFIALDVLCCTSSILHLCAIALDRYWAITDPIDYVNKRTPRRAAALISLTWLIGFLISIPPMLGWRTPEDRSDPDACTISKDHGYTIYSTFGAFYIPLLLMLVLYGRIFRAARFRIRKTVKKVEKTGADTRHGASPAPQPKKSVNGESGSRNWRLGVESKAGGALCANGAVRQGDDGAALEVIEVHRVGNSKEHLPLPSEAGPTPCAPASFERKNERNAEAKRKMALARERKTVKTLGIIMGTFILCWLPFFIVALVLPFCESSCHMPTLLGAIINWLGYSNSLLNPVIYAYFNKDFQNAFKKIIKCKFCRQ
# Experimental: as §1
# mitral valve = assay: Mitral valve thickness by histology (hematoxylin/eosin); assay type: in vivo; conditions: Sod1^G86R mice, 3 mg/kg/d; vehicle 57.7 µm
# Experimental: To this aim, we measured mitral valve thickness using histology (Fig. 3). […] The lack of beneficial effect of BW on survival and motor function is not due to the developpement of valvulopathy nor cardiac failure. Thus, BW is not protective in Sod1^G86R mice independently of any potential cardiotoxicity.
# After dissection and rinse with PBS 1X, hearts were fixed for 72 h in formaldehyde 4% solution. After paraffin inclusion, cuts of 4 µm thickness were made. Hematoxylin/eosin staining was performed on these cuts. Inclusion and staining were performed by the department of histopathology and embyology of the mouse clinical institute (ICS, Illkirch-Graffenstaden). Valve imaging was performed with a Leica DFC425C camera mounted on a microscope Leica DM750, at × 10 magnification (cat# 506228, 10x/0.25 HI PLAN ∞/−), with LAS V4.8 software (Leica Microsystems). […] Average thickness was determined by rapporting the area on the length of the leaflet.
# Ca^2+ channel, ds = assay: Radioligand binding competition dose-response (Euroscreen), Ca2+ channel diltiazem site
# Experimental: as §1
smiles,measurement,setting,value
"CC(N)Cc1c[nH]c2ccc(OCc3cccs3)cc12 (stereo not shown) [BW, 1-[5-(thiophen-2-ylmethoxy)-1H-indol-3-yl]propan-2-amine]",Tmax,[1]; in vivo,~30 min
same,concentration at 4 h,[1]; in vivo,860 ng/g
same,concentration at 8 h,[1]; in vivo,14.4 ng/mL and 417 ng/g
same,half-life,[1]; plasma,66 min
same,stable at 37 °C in vehicle,[2],at least 2 months
same,IC50,5-HT7,1020 nM
same,inhibition at 10 µM,"5-HT7; dose-response study, maximal concentration 10 µM, [3H]LSD",91.8%
same,IC50,DAT,741 nM
same,inhibition at 10 µM,DAT; read-out: %Binding inhibition at 10 µM,73.2%
same,inhibition at 10 µM,5-HT1A,91.8%
same,mitral valve thickness,mitral valve,60.2 µm
same,pIC50,"Ca^2+ channel, ds; [3H]diltiazem competition",6.11
same,%Binding inhibition at 10 µM,"Ca^2+ channel, ds; dose-response study, maximal concentration 10 µM, [3H]diltiazem",35.80%
